Legend:
[1] = test system: CYPES; assay: Pre-emergence action against CYPES; type: in vivo, Cyperus esculentus; conditions: Cyperus esculentus, 504 h; pre-emergence, dosage 320 g/ha, scored visually after 3 weeks vs untreated controls; read-out: Pre-emergence action against CYPES (herbicidal activity)
Outline: (§1)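 Seeds sown in sandy loam in wood-fiber pots and covered with soil. Greenhouse growth; visual damage scored after 3 weeks versus untreated controls (100% = dead, 0% = like control).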

[2] = test system: ECHCG; assay: Pre-emergence action against ECHCG; type: in vivo, Echinochloa crus-galli
Outline: as §1

[3] = test system: SETVI; assay: Pre-emergence action against SETVI; type: in vivo, Setaria viridis; conditions: Setaria viridis, 504 h; pre-emergence, dosage 320 g/ha, scored visually after 3 weeks vs untreated controls; read-out: SETVI (Table B8, pre-emergence herbicidal activity)
Outline: as §1

[4] = test system: ABUTH; assay: Pre-emergence action against ABUTH; type: in vivo, Abutilon theophrasti; conditions: Abutilon theophrasti, 504 h; pre-emergence, dosage 320 g/ha, scored visually after 3 weeks vs untreated controls; read-out: Pre-emergence action against ABUTH (herbicidal activity)
Outline: as §1

[5] = test system: AMARE; assay: Pre-emergence action against AMARE; type: in vivo, Amaranthus retroflexus
Outline: as §1

[6] = test system: MATIN; assay: Pre-emergence action against MATIN; type: in vivo, Matricaria inodora; conditions: for Herbicidal efficacy against MATIN: 20 g of a.i./ha
Outline: as §1

[7] = test system: POLCO; assay: Pre-emergence action against POLCO; type: in vivo, Polygonum convolvulus; conditions: Fallopia convolvulus, 504 h; Dosage 320 g/ha, pre-emergence
Outline: as §1

[8] = test system: STEME; assay: Pre-emergence action against STEME; type: in vivo, Stellaria media
Outline: as §1

[9] = test system: VIOTR; assay: Pre-emergence action against VIOTR; type: in vivo, Viola tricolor; conditions: for Herbicidal efficacy against VIOTR: 20 g of a.i./ha
Outline: as §1

[10] = test system: VERPE; assay: Pre-emergence action against VERPE; type: in vivo, Veronica persica
Outline: as §1

[11] = test system: ALOMY; assay: Post-emergence action against ALOMY; type: in vivo, Alopecurus myosuroides; conditions: Alopecurus myosuroides, 504 h; Dosage 80 g/ha, post-emergence
Protocol: Seeds of monocotyledonous and dicotyledonous weed and crop plants are laid out in sandy loam soil in wood-fiber pots, covered with soil and cultivated in a greenhouse under good growth conditions. 2 to 3 weeks after sowing, the test plants are treated at the one-leaf stage. The compounds of the invention, formulated in the form of wettable powders (WP) or as emulsion concentrates (EC), are then sprayed onto the green parts of the plants in the form of an aqueous suspension or emulsion at a water application rate equating to […], with addition of 0.2% wetting agent. After the test plants have been left to stand in the greenhouse under optimal growth conditions for about 3 weeks, the action of the preparations is assessed visually in comparison to untreated controls (herbicidal action in percent (%): 100% activity=the plants have died, 0% activity=like control plants). […] At the same time, inventive compounds leave Gramineae crops such as barley, wheat, rye, millet/Sorghum, corn or rice virtually undamaged when applied post-emergence, even at high active ingredient dosages. In addition, some substances are also harmless to dicotyledonous crops such as soya, cotton, oilseed rape, sugar beet or potatoes. Some of the compounds according to the invention have high selectivity and are therefore suitable for controlling unwanted vegetation in agricultural crops by the post-emergence method. The data of Tables B18 to B34 below illustrate, in an exemplary manner, the […] herbicidal action of the compounds according to the invention, the herbicidal activity being stated in percent.

[12] = test system: AVEFA; assay: Post-emergence action against AVEFA; type: in vivo, Avena fatua; conditions: Avena fatua, 504 h; post-emergence, dosage 80 g/ha, visual assessment about 3 weeks after treatment vs untreated controls; read-out: Post-emergence action against AVEFA (herbicidal action in percent)
Outline: (§2)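 Weeds grown in sandy loam in greenhouse, treated at one-leaf stage (2–3 weeks after sowing) with WP or EC formulations sprayed as aqueous suspension/emulsion at 600 to […] water with 0.2% wetting agent. Visual rating after about 3 weeks versus untreated controls, as % herbicidal action (100% = plants dead, 0% = like control).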

[13] = test system: ECHCG; assay: Post-emergence action against ECHCG; type: in vivo, Echinochloa crus-galli; conditions: Echinochloa crus-galli, 504 h; post-emergence, dosage 80 g/ha, visual assessment about 3 weeks after treatment vs untreated controls; read-out: Post-emergence action against ECHCG (herbicidal action in percent)
Outline: as §2

[14] = test system: SETVI; assay: Post-emergence action against SETVI; type: in vivo, Setaria viridis; conditions: Setaria viridis, 504 h; post-emergence, dosage 80 g/ha, visual assessment about 3 weeks after treatment vs untreated controls; read-out: Post-emergence action against SETVI (herbicidal action in percent)
Outline: as §2

[15] = test system: ABUTH; assay: Post-emergence action against ABUTH; type: in vivo, Abutilon theophrasti; conditions: Abutilon theophrasti, 504 h; post-emergence, dosage 80 g/ha, visual assessment about 3 weeks after treatment vs untreated controls; read-out: Post-emergence action against ABUTH (herbicidal action in percent)
Outline: as §2

[16] = test system: AMARE; assay: Post-emergence action against AMARE; type: in vivo, Amaranthus retroflexus; conditions: Amaranthus retroflexus, 504 h; post-emergence, dosage 80 g/ha, visual assessment about 3 weeks after treatment vs untreated controls; read-out: Post-emergence action against AMARE (herbicidal action in percent)
Outline: as §2

[17] = test system: MATIN; assay: Post-emergence action against MATIN; type: in vivo, Matricaria inodora
Outline: as §2

[18] = test system: PHBPU; assay: Post-emergence action against PHBPU; type: in vivo, Pharbitis purpurea; conditions: Ipomoea purpurea, 504 h; post-emergence, dosage 80 g/ha
Outline: as §2

[19] = test system: POLCO; assay: Post-emergence action against POLCO; type: in vivo, Polygonum convolvulus; conditions: Fallopia convolvulus, 504 h; post-emergence, dosage 80 g/ha
Outline: as §2

[20] = test system: STEME; assay: Post-emergence action against STEME; type: in vivo, Stellaria media; conditions: Stellaria media, 504 h; post-emergence, dosage 80 g/ha
Outline: as §2

[21] = test system: VIOTR; assay: Post-emergence action against VIOTR; type: in vivo, Viola tricolor
Outline: as §2

[22] = test system: VERPE; assay: Post-emergence action against VERPE; type: in vivo, Veronica persica; conditions: Veronica persica, 504 h, dosage 80 g/ha
Outline: as §2

[23] = Table V8, pre-emergence, 20 g of a.i./ha
[24] = Table V17, post-emergence, 5 g of a.i./ha

CC(=O)c1c(S(C)(=O)=O)ccc(C(=O)Nc2nnnn2C)c1C [1-7]
80%: pest or weed control at 320 g/ha [7] | pest or weed control at 80 g/ha [11] | pest or weed control at 80 g/ha [12] | pest or weed control at 80 g/ha [19]
100: Herbicidal efficacy against AMARE [5, 23] | Herbicidal efficacy against VIOTR ([9]; Table V5, pre-emergence) | Herbicidal efficacy against VIOTR ([9]; Table V8, pre-emergence) | Herbicidal efficacy against VERPE [10, 23] | Herbicidal efficacy against MATIN [17, 24] | Herbicidal efficacy against VIOTR [21, 24]
90%: pest or weed control at 320 g/ha ([8]; Stellaria media, 504 h, Dosage 320 g/ha, pre-emergence) | pest or weed control at 80 g/ha [13] | pest or weed control at 80 g/ha [14] | pest or weed control at 80 g/ha [15]
100%: pest or weed control at 320 g/ha [1] | pest or weed control at 320 g/ha ([2]; Echinochloa crus-galli, 504 h, pre-emergence, dosage 320 g/ha, scored visually after 3 weeks vs untreated controls, read-out: Pre-emergence action against ECHCG (herbicidal activity)) | pest or weed control at 320 g/ha [3] | pest or weed control at 320 g/ha [4] | pest or weed control at 320 g/ha ([5]; Amaranthus retroflexus, 504 h, pre-emergence, dosage 320 g/ha, scored visually after 3 weeks vs untreated controls, read-out: Pre-emergence action against AMARE (herbicidal activity)) | pest or weed control at 320 g/ha ([6]; Tripleurospermum inodorum, 504 h, Dosage 320 g/ha, pre-emergence) | pest or weed control at 320 g/ha ([9]; Viola tricolor, 504 h, Dosage 320 g/ha, pre-emergence) | pest or weed control at 320 g/ha ([10]; Veronica persica, 504 h, Dosage 320 g/ha, pre-emergence) | pest or weed control at 80 g/ha [16] | pest or weed control at 80 g/ha ([17]; Tripleurospermum inodorum, 504 h, post-emergence, dosage 80 g/ha, visual assessment about 3 weeks after treatment vs untreated controls, read-out: Post-emergence action against MATIN (herbicidal action in percent)) | pest or weed control at 80 g/ha [18] | pest or weed control at 80 g/ha [20] | pest or weed control at 80 g/ha ([21]; Viola tricolor, 504 h, post-emergence, dosage 80 g/ha) | pest or weed control at 80 g/ha [22]
70: Herbicidal efficacy against ECHCG [2, 23]
90: Herbicidal efficacy against MATIN ([6]; Table V5, pre-emergence) | Herbicidal efficacy against MATIN ([6]; Table V8, pre-emergence) | Herbicidal efficacy against STEME [8, 23]

Source: patent publication US11051515B2, “3-acyl-benzamides and their use as herbicides” (Bayer Aktiengesellschaft, priority 2017, dated 2021)
